According to patent US12116371B2, “Substituted pyridines as irreversible inhibitors of menin-MLL interaction” (BIOMEA FUSION, INC., priority 2018, dated 2024):
Where two headings read alike, the source gives them in different places.

Legend:
Conditions in all cases: for IC50: Homo sapiens
[1] = tested on: MOLM-13 cells; test: Long term proliferation assay, InCell read-out; format: cell-based, human
Method: (§1) Compounds of invention are tested in the 5 suspension lines by 14-day long-term proliferation assay.
(§2) The compound is tested in 10-pt dose titration (client will determine the starting concentration and the dilution scheme) and the final DMSO concentration is kept at 0.2%.
(§3) On Day 0, in a flat bottom 96-well plate, add 100 μL of cells per well at the densities optimized. Prepare compounds in DMSO at 500× final concentration. Dilute the compounds with DMSO at the dilution. Dilute the compounds in media at 3× final concentration. Add 50 μL of compound or DMSO at 3× final concentration to each well. Final volume in each well is 150 μL, and final concentration of DMSO is 0.2%. Also include 3 untreated control wells, by adding 50 μL of media alone. Incubate plates for 96 hours.
(§4) To do this take the total viable cell count calculated using step: • 1. Take the average of the replicates for each dose in order to be used in splitting the cells. • 2. Use a 96 well V-bottom plate to spin down the cells to remove old media and compound to split the cells. • 3. Based on the split ratio place the proper amount of media and cells into the V-bottom plate, and spin the plate at 1100 rpm for 5 minutes. • 4. Following the spin remove the media, careful not to disturb the cell pellet. Re-suspend pellet in 100 μL fresh media, and add to a new 96-well flat bottom plate. • 5. Add fresh compound, in the same manner as Step 3). • 6. Incubate plates for 72 hours. Repeat steps 5)-10) on Day 7. • 7. Incubate plates for 96 hours. Repeat Step 5)-10) on Day 11. • 8. Incubate 72 hours and repeat step 5) to take a final count. • 9. Data Analysis
(§5) To calculate growth for days 4, 7, 11, and 14: • 1. Calculate the split factor for day 4 to 7, day 7 to 11, and day 11-14. The split factor is the viable cells/mL on Day X (either 4, 7 or 11) divided by the density the cells are being split back to. • 2. For growth of cells from day 4 to 7, multiply the day 7 viable cells/mL density by the split factor from day 4. • 3. For growth of cells from day 7 to 11, multiply the day 11 viable cells/mL density by the days 4, and 7 split factors. • 4. For growth of cells from Day 11 to 14, multiply the Day 14 viable cells/mL density by the days 4, 7, and 11 split factors. • 5. Plot growth on semi-log chart (viable cells/mL on Y axis, in log, and days on X axis). • 6. The growth inhibition was calculated with the formula ((untreated cell numbers-treated cell numbers)/untreated cell)). • 7. Calculate the IC50 for each compound in each line using XLFit (Sigmoidal Dose-Response Model, y=(Bottom+((Top-Bottom)/(1+((IC50/×)^Hill))))).

[2] = tested on: MV4-11 cells; test: Long term proliferation assay, InCell read-out; format: cell-based, human
Method: as §1, §2, §3, §4, §5

[3] = tested on: KG-1 cells; test: Long term proliferation assay, InCell read-out; format: cell-based
Method: as §1, §2, §3, §4, §5

[4] = tested on: OCI-AML-3 cells; test: Long term proliferation assay, InCell read-out; format: cell-based
Method: as §1, §2, §3, §4, §5

[5] = tested on: MIAPaCa-2 cells; test: Proliferation assay, cells in adhesion; format: cell-based
[6] = tested on: SK-LU-1/AMG510 cells; test: Proliferation assay, cells in adhesion; format: cell-based
[7] = tested on: MOLM-13 cells; test: Long term proliferation assay, Cell Titer-Glo read-out; format: cell-based, human
Method: as §1, §2, §3, §4, §5

[8] = tested on: MV4-11 cells; test: as above; format: cell-based, human
Method: as §1, §2, §3, §4, §5

CN(C)C/C=C/C(=O)Nc1ccc(CC(=O)Nc2ccc(-c3cc4c(N5CCOCC5)ncnc4[nH]3)cc2)cc1 [Compound 5]
IC50 ([1]; MOLM-13, 96 h, MOLM-13, Day 4, read-out: Day 4 IC50): 150 nM | IC50 ([1]; MOLM-13, 264 h, MOLM-13, Day 11, read-out: Day 11 IC50): 380 nM | IC50 ([1]; MOLM-13, MOLM-13, T4, read-out: IC50): 150 nM | IC50 ([1]; MOLM-13, MOLM-13, T4, read-out: pIC50 (converted)): 148 nM | IC50 ([1]; MOLM-13, MOLM-13, T11, read-out: IC50): 380 nM | IC50 ([1]; MOLM-13, MOLM-13, T11, read-out: pIC50 (converted)): 380 nM | % max ([1]; MOLM-13, T4): 97% | % max ([1]; MOLM-13, T11): 98% | IC50 ([2]; MV4-11, 96 h, MV4-11, Day 4, read-out: Day 4 IC50): 420 nM | IC50 ([2]; MV4-11, 264 h, MV4-11, Day 11, read-out: Day 11 IC50): 490 nM | IC50 ([2]; MV4-11, MV4-11, T4, read-out: IC50): 420 nM | IC50 ([2]; MV4-11, MV4-11, T4, read-out: pIC50 (converted)): 417 nM | IC50 ([2]; MV4-11, MV4-11, T11, read-out: IC50): 490 nM | IC50 ([2]; MV4-11, MV4-11, T11, read-out: pIC50 (converted)): 490 nM | % max ([2]; MV4-11, T4): 83% | % max ([2]; MV4-11, T11): 83% | IC50 ([3]; KG-1, 96 h, KG-1, Day 4, read-out: Day 4 IC50): > 5000 nM | IC50 ([3]; KG-1, 264 h, KG-1, Day 11, read-out: Day 11 IC50): > 4470 nM | IC50 ([3]; KG-1, KG-1, T4, read-out: IC50): > 5000 nM | IC50 ([3]; KG-1, KG-1, T4, read-out: pIC50 (converted)): > 5010 nM | IC50 ([3]; KG-1, KG-1, T11, read-out: IC50): 4470 nM | IC50 ([3]; KG-1, KG-1, T11, read-out: pIC50 (converted)): 4470 nM | % max ([3]; KG-1, T4): <50% | % max ([3]; KG-1, T11): 52% | IC50 ([4]; OCI-AML-3, 96 h, OCI-AML-3, Day 4, read-out: Day 4 IC50): 450 nM | IC50 ([4]; OCI-AML-3, 264 h, OCI-AML-3, Day 11, read-out: Day 11 IC50): 460 nM | IC50 ([4]; OCI-AML-3, OCI-AML3, T4, read-out: IC50): 450 nM | IC50 ([4]; OCI-AML-3, OCI-AML3, T4, read-out: pIC50 (converted)): 447 nM | IC50 ([4]; OCI-AML-3, OCI-AML3, T11, read-out: IC50): 460 nM | IC50 ([4]; OCI-AML-3, OCI-AML3, T11, read-out: pIC50 (converted)): 457 nM | % max ([4]; OCI-AML3, T4): 100% | % max ([4]; OCI-AML3, T11): 100% | IC50 ([5]; MIA PaCa-2, MIAPaCa-2, T4, read-out: IC50): 1480 nM | IC50 ([5]; MIA PaCa-2, MIAPaCa-2, T4, read-out: pIC50 (converted)): 1480 nM | IC50 ([5]; MIA PaCa-2, MIAPaCa-2, T7, read-out: IC50): 870 nM | IC50 ([5]; MIA PaCa-2, MIAPaCa-2, T7, read-out: pIC50 (converted)): 871 nM | IC50 ([5]; MIA PaCa-2, MIAPaCa-2, T11, read-out: IC50): 520 nM | IC50 ([5]; MIA PaCa-2, MIAPaCa-2, T11, read-out: pIC50 (converted)): 525 nM | % max ([5]; MIAPaCa-2, T4): 95% | % max ([5]; MIAPaCa-2, T7): 98% | % max ([5]; MIAPaCa-2, T11): 99% | IC50 ([6]; SK-LU-1, SK-LU-1/AMG510, T4, read-out: IC50): > 5000 nM | IC50 ([6]; SK-LU-1, SK-LU-1/AMG510, T4, read-out: pIC50 (converted)): > 5010 nM | IC50 ([6]; SK-LU-1, SK-LU-1/AMG510, T7, read-out: IC50): > 5000 nM | IC50 ([6]; SK-LU-1, SK-LU-1/AMG510, T7, read-out: pIC50 (converted)): > 5010 nM | IC50 ([6]; SK-LU-1/AMG510, T11, read-out: IC50): > 5000 nM | IC50 ([6]; SK-LU-1/AMG510, T11, read-out: pIC50 (converted)): > 5010 nM | % max ([6]; SK-LU-1/AMG510, T4): <50% | % max ([6]; SK-LU-1/AMG510, T7): <50% | % max ([6]; SK-LU-1/AMG510, T11): <50% | IC50 ([7]; MOLM-13, 96 h, MOLM-13, Day 4, Cell Titer-Glo, read-out: Day 4 IC50): 500 nM | IC50 ([7]; MOLM-13, 168 h, MOLM-13, Day 7, Cell Titer-Glo, read-out: Day 7 IC50): 340 nM | IC50 ([7]; MOLM-13, 264 h, MOLM-13, Day 11, Cell Titer-Glo, read-out: Day 11 IC50): 350 nM | IC50 ([7]; MOLM-13, 336 h, MOLM-13, Day 14, Cell Titer-Glo, read-out: Day 14 IC50): 360 nM | IC50 ([7]; MOLM-13, MOLM-13, T4, CellTiter-Glo, read-out: IC50): 500 nM | IC50 ([7]; MOLM-13, MOLM-13, T4, CellTiter-Glo, read-out: pIC50 (converted)): 501 nM | IC50 ([7]; MOLM-13, MOLM-13, T11, CellTiter-Glo, read-out: IC50): 350 nM | IC50 ([7]; MOLM-13, MOLM-13, T11, CellTiter-Glo, read-out: pIC50 (converted)): 355 nM | % max ([7]; MOLM-13, T4, CellTiter-Glo): 98% | % max ([7]; MOLM-13, T11, CellTiter-Glo): 99% | IC50 ([8]; MV4-11, 96 h, MV4-11, Day 4, Cell Titer-Glo, read-out: Day 4 IC50): 360 nM | IC50 ([8]; MV4-11, 168 h, MV4-11, Day 7, Cell Titer-Glo, read-out: Day 7 IC50): 140 nM | IC50 ([8]; MV4-11, 264 h, MV4-11, Day 11, Cell Titer-Glo, read-out: Day 11 IC50): 110 nM | IC50 ([8]; MV4-11, 336 h, MV4-11, Day 14, Cell Titer-Glo, read-out: Day 14 IC50): 90 nM | IC50 ([8]; MV4-11, MV4-11, T4, CellTiter-Glo, read-out: IC50): 360 nM | IC50 ([8]; MV4-11, MV4-11, T4, CellTiter-Glo, read-out: pIC50 (converted)): 363 nM | IC50 ([8]; MV4-11, MV4-11, T11, CellTiter-Glo, read-out: IC50): 110 nM | IC50 ([8]; MV4-11, MV4-11, T11, CellTiter-Glo, read-out: pIC50 (converted)): 115 nM | % max ([8]; MV4-11, T4, CellTiter-Glo): 99% | % max ([8]; MV4-11, T11, CellTiter-Glo): 99%
